What was measured:
[1] = system: E. coli PQ37; format: cell-based; settings: iridoid at 250 ug plus 1.25 ug mL^−1 4NQO; blank = 1
Experimental: The SOS-chromotest in E. coli PQ37 was used to determine the potential for iridoids in noni fruit from French Polynesia to prevent primary DNA damage. E coli PQ37 was incubated at 37° C. in the presence of deacetylasperulosidic acid and asperulosidic acid at a concentration of 250 ug in a 96-well plate. Replicate samples were evaluated. […] Following incubation with the samples, 5-bromo-4-chloro-3-indolyl-β-D-galactopyranoside was added to the wells to detect β-galactosidase enzyme activity, which is induced during SOS repair of damaged DNA. The samples were again incubated for 90 minutes and the absorbances of the samples, blank and positive control were measured at 620 nm with a microplate reader. The β-galactosidase enzyme activity induction factor of each material was calculated by dividing the absorbance of the sample at 620 nm by that of the blank, while also correcting for cell viability.

[2] = system: E. coli PQ37; experiment: Anti-genotoxicity test (SOS-chromotest with 4NQO); format: cell-based; settings: 250 μg mL^−1 iridoid plus 1.25 μg 4NQO, compared with vehicle blank
Experimental: The primary DNA damage test was performed again, similar to the method described above. […] Induction factors were calculated in the same manner as described above.

[3] = Thermal stability of DAA under pasteurization conditions (HPLC); format: physicochemical; settings: 90° C. at pH 3.3 for one minute
Experimental: Tahitian noni fruit puree as used in this example is the mashed whole fruit, excluding seeds and pericarp. The fruits were originally collected from the Tahitian Islands. One gram of the puree was diluted with 5 mL of H2O-MeOH (1:1) and mixed thoroughly. The solution was then filtered through a nylon microfilter (0.45-μm pore size); the solution was collected into a 5 mL volumetric flask for HPLC analysis. Four batches of noni puree were analyzed in the experiments. Voucher specimens of the noni fruit puree are deposited in our lab. To test iridoid stability, a DAA solution of 0.5 mg/mL was prepared with MeOH. This solution was heated in a water-bath at 90° C. for 1 min, cooled to room temperature, and analyzed by HPLC.
Noni fruit juice is usually subjected to heat pasteurization during commercial processing. Pasteurization is usually employed in noni industry, i.e., heating up to 87.7° C. for several seconds. In this study, the stability of DAA was conducted. DAA was exposed to 90° C. at pH 3.3 for one minute to determine its thermal stability at acidic conditions.

For `O=C(O)C1=CO[C@@H](O[C@@H]2O[C@H](CO)[C@@H](O)[C@H](O)[C@H]2O)[C@@H]2C(CO)=C[C@H](O)[C@H]12` [DAA, deacetylasperulosidic acid], the “β-galactosidase enzyme activity induction factor (mean±standard deviation)” value [1] was 0.98±0.02, the “induction factors of 4NQO plus DAA or AA” value [2] was “no statistical difference from that of the vehicle blank” and the “thermal stability (DAA contents before and after heating)” value [3] was “no difference in the DAA contents before and after heating”.
With `CC(=O)OCC1=C[C@H](O)[C@@H]2C(C(=O)O)=CO[C@@H](O[C@@H]3O[C@H](CO)[C@@H](O)[C@H](O)[C@H]3O)[C@H]12` [AA, asperulosidic acid] the “β-galactosidase enzyme activity induction factor (mean±standard deviation)” value [1] was 1.04±0.01 and the “induction factors of 4NQO plus DAA or AA” value [2] was “no statistical difference from that of the vehicle blank”.
